# Patent publication US8603762B2 (priority 2008, dated 2013)
# Read-outs that look alike come from different tables or passages of the source.
# Assays:
# Type in all cases: cell-based
# human TAS2R46 [1] = molecular target: T1, human TAS2R46 (Homo sapiens, UniProt P59540); test: Fluo-4 calcium assay, HEK293T/Gα16-gustducin44 cells transiently expressing TAS2R46
# T1 construct: RSS tag (first 45 amino acids of rat somatostatin receptor subtype 3, plus EcoRI site residues) (N); expressed in transfected cells
# T1 sequence (P59540 with tags, fused parts or gaps): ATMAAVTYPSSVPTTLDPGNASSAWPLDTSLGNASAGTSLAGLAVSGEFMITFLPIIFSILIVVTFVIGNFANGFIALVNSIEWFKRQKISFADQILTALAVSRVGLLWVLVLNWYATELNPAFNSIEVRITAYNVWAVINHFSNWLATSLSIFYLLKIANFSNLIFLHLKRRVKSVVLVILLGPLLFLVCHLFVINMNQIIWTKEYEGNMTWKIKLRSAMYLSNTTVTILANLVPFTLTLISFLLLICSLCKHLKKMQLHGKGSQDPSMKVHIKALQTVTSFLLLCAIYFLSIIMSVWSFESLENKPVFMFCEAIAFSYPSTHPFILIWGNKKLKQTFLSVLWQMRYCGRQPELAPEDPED
# Experimental: In a second tube, 0.3 μl of Lipofectamine 2000 was diluted in 12.5 μl of DMEM and incubated for 5 min at room temperature. After the 5 min, both solutions were mixed and incubated for 20 min at RT. […] This mixture was then replaced with an antibiotic-free, serum-containing DMEM. […]
# (§1) For assay reading, the plate was placed in a Fluorometric Imaging Plate Reader (FLIPR) (FLIPR-TETRA™, Molecular Devices, Sunnyvale, Calif., US), and receptor activation was initiated by addition of 20 μl of a tenfold concentrated agonist stock solution (to give the desired agonist end concentration when added to the 180 microliter assay buffer volume), which was prepared in assay buffer.
# Fluorescence was continuously monitored for 20 seconds to give a signal baseline (averaged to give F0) prior to agonist addition and for 120 seconds after agonist addition. […]
# (§2) The obtained calcium signals were corrected for the response of cells expressing only the G Protein α subunit (Gα16-gustducin44) and normalized to the fluorescence of cells prior to the stimulus using ΔF/F0 (Fmax−Fmin/F0).
# [2] = test system: more than 15 human TAS2Rs; test: Activation of other human TAS2Rs; conditions: more than 15 human TAS2Rs tested
# [3] = test system: HEK293T Gα16gustducin44 cells (that do not express TAS2R46)
# Experimental: (§3) At day 0, the HEK293T cell line expressing Gα16-gustducin44 and a TAS2R46 bitter taste receptor formed as described in examples 2b or 2c was seeded in antibiotic-free growth medium (standard DMEM with 10% (v/v) heat-inactivated fetal bovine serum, 2 mM L-glutamine[…]) into black wall/clear bottom 96-well plates, coated with poly(ethylenimine) (0.005% v/v) at a concentration of 15,000 cells per well and incubated for 48 hours in humidified atmosphere (37° C., 5% CO2).
# (§4) At the time of the assay, the growth medium was discarded and the cells were in humidified atmosphere (37° C., 5% CO2) for 1 hour with 50 μl of loading buffer consisting of 1.5 μM Fluo-4 AM and […] probenicid (Sigma-Aldrich, St. Louis, Mo., US) in DMEM.
# (§5) Afterwards, the 96-well plate was washed 5 times with 100 μl of assay buffer (130 mM NaCl, 5 mM KCl, 10 mM HEPES, 2 mM CaCl2, and 5 mM dextrose, pH 7.4) per well, using an automated plate washer (BioTek). The plate was further incubated for 30 minutes at room temperature in the dark to allow for complete de-esterification of the Fluo-4. Afterwards the plate was washed 5 times with 100 μl of assay buffer per well, and reconstituted with 100 μl of assay buffer per well.
# as §1
# (§6) Fluorescence was continuously monitored for 20 seconds to give a signal baseline (averaged to give F0) prior to agonist addition and for 120 seconds after agonist addition. The change in signal divided by F0 gives ΔF/F0 indicated in the table, with ΔF being the maximum signal occurring within the 120 seconds minus the minimum signal (occurring within the 120 seconds after agonist addition.
# as §2
# human TAS2R46 [4] = molecular target: T1, human TAS2R46
# Experimental: as §3, §4, §5, §1, §6, §2
smiles,measurement,setting,value
COc1ccc2c(c1)[C@]13CCCC[C@@H]1[C@H](C2)N(C)CC3 [dextromethorphan],calcium signaling upon addition of agonist (in words),human TAS2R46 [1],significant concentration-dependent increase in calcium signaling
same,activation of other human TAS2Rs (in words),[2],not to be activated
same,Neg. Control ΔF/F0,"[3]; dextromethorphan 0.254 μM, cells expressing only Gα16gustducin44",0.050
same,Neg. Control ΔF/F0,"[3]; dextromethorphan 0.508 μM, cells expressing only Gα16gustducin44",0.044
same,Neg. Control ΔF/F0,"[3]; dextromethorphan 1.016 μM, cells expressing only Gα16gustducin44",0.053
same,Neg. Control ΔF/F0,"[3]; dextromethorphan 2.031 μM, cells expressing only Gα16gustducin44",0.038
same,Neg. Control ΔF/F0,"[3]; dextromethorphan 4.063 μM, cells expressing only Gα16gustducin44",0.041
same,Neg. Control ΔF/F0,"[3]; dextromethorphan 8.125 μM, cells expressing only Gα16gustducin44",0.044
same,Neg. Control ΔF/F0,"[3]; dextromethorphan 16.250 μM, cells expressing only Gα16gustducin44",0.067
same,Neg. Control ΔF/F0,"[3]; dextromethorphan 65.000 μM, cells expressing only Gα16gustducin44",0.312
same,change in signal in the negative control (in words),[3]; host cells expressing only Gα16-gustducin44,No significant change
same,calcium signaling upon addition of agonist (in words),human TAS2R46 [4]; cells stably expressing human TAS2R46,significant increase in calcium signaling
same,EC50,"human TAS2R46 [4]; stable cell line, nonlinear regression of ΔF/F0, read-out: calculated EC50 value for TAS2R46",31 µM
O=C1C[C@@H]2OCC=C3CN4CC[C@]56c7ccccc7N1[C@H]5[C@H]2[C@H]3C[C@H]46 [strychnine],Neg. Control ΔF/F0,"[3]; strychnine 0.977 μM, cells without TAS2R46",0.060
same,Neg. Control ΔF/F0,"[3]; strychnine 1.953 μM, cells without TAS2R46",0.065
same,Neg. Control ΔF/F0,"[3]; strychnine 3.906 μM, cells without TAS2R46",0.071
same,Neg. Control ΔF/F0,"[3]; strychnine 7.813 μM, cells without TAS2R46",0.070
same,Neg. Control ΔF/F0,"[3]; strychnine 15.63 μM, cells without TAS2R46",0.063
same,Neg. Control ΔF/F0,"[3]; strychnine 31.25 μM, cells without TAS2R46",0.088
same,Neg. Control ΔF/F0,"[3]; strychnine 62.50 μM, cells without TAS2R46",0.091
same,Neg. Control ΔF/F0,"[3]; strychnine 125.0 μM, cells without TAS2R46",0.088
same,Neg. Control ΔF/F0,"[3]; strychnine 250.0 μM, cells without TAS2R46",0.181
